Reference: publication PMC7179202 (Molecules, 2020)

Legend:
[1] = H2O2 activation assay (HPLC); details: for Product of activation with H2O2 / Release of free crizotinib: ten equivalents H2O2, phosphate buffer 50 mM pH 7.4, 37 °C; for Product of activation with H2O2: 1 h, HPLC-MS
Method: Therefore, the activation process was verified by incubation with ten equivalents of H2O2 in phosphate buffer (50 mM, pH 7.4) at 37 °C. […] In a complex biological environment, this quinone methide usually reacts with other nucleophiles; consequently, this side reaction can be neglected.
Additionally, a H2O2 solution (1 mM) in PB7.4 was prepared. The activation was started by addition of 5 µL of drug solution and 25 µL of H2O2 to 70 µL of PB7.4 and incubated at 37 °C for 1 h. At time point 0 and every 8 min, the sample were measured via HPLC. All measurements were performed on a ThermoFisher Ultimate 3000RS system using a Water’s Acquity BEH C18 column (3 × 50 mm, 1.7 µm) and a 5%–95% gradient of acetonitrile (+0.1% TFA) in water (+0.1% TFA). […] The results are visualized in Figure S6 for prodrug A and in Figure S7 for prodrug B.

c-MET = c-MET (Homo sapiens, UniProt P08581); experiment: Cell-free kinase inhibition assay (SelectScreen, Z'-LYTE), c-MET; details: for Prodrug factor c-MET = IC50 (prodrug)/IC50 (crizotinib): cell-free kinase assay
Excerpt: (§1) The test compounds were screened in a final concentration of 1% DMSO using the Z′-LYTE® Assay.

[2] = system: H2228 (ALK-dependent non-small cell lung cancer); experiment: MTT cytotoxicity assay, H2228; details: for IC50: Homo sapiens, NCI-H2228, read-out: IC50 H2228; for Ratio of IC50 ±H2O2, H2228: IC50 without / with H2O2 pre-incubation
Method: (§2) In addition, to assess the amount of prodrug activation in these models, the cytotoxicity of the activated drugs after (cell-free) pre-incubation with H2O2 was tested for comparison.
(§3) All samples were dissolved in DMSO and diluted to the indicated concentrations (final concentrations of DMSO were below 1%). […] Viability was measured using 3-(4,5-dimethylthiazol-2-yl)-2,5-diphenyltetrazolium bromide (MTT) based vitality assay (EZ4U; Biomedica, Vienna, Austria) following the manufacturer’s recommendations.

[3] = system: non-malignant human lung fibroblasts (HLF); experiment: MTT cytotoxicity assay, HLF; details: Fibroblast, read-out: IC50 HLF
Method: as §2, §3

ALK = ALK (Homo sapiens, UniProt Q9UM73); experiment: Cell-free kinase inhibition assay (SelectScreen, Z'-LYTE), ALK; details: for Prodrug factor ALK = IC50 (prodrug)/IC50 (crizotinib): cell-free kinase assay
Excerpt: as §1

[4] = system: RUMH (c-MET-overexpressing renal cell carcinoma); experiment: MTT cytotoxicity assay, RUMH; details: for IC50: Homo sapiens, read-out: IC50 RUMH; for Ratio of IC50 ±H2O2, RUMH: IC50 without / with H2O2 pre-incubation
Method: as §2, §3

[5] = Stability in R10 medium and fetal calf serum (HPLC-MS); details: R10 medium and pure FCS, 37 °C, after 72 h
Method: After precipitation of the macromolecules with acetonitrile, the supernatant was investigated via HPLC-MS measurements (Figure 4).
The 10 mM stock solutions of the drugs were prepared in DMSO and diluted 1:10 with PB7.4. […] At different time points, macromolecules were precipitated by addition of 40 µL of acetonitrile, vortexed and centrifuged for 10 min at 6000 rpm. The supernatant was extracted and investigated via HPLC-MS measurements.

[6] = system: H1993 (c-MET-dependent non-small cell lung cancer); experiment: MTT cytotoxicity assay, H1993; details: for IC50: Homo sapiens, NCI-H1993, read-out: IC50 H1993; for Ratio of IC50 ±H2O2, H1993: IC50 without / with H2O2 pre-incubation
Method: as §2, §3

[7] = design: method as in PMID 28256516; details: approved orally applied drug, SwissADME prediction; cited from earlier work

ALK, sequence (Q9UM73 19-1620): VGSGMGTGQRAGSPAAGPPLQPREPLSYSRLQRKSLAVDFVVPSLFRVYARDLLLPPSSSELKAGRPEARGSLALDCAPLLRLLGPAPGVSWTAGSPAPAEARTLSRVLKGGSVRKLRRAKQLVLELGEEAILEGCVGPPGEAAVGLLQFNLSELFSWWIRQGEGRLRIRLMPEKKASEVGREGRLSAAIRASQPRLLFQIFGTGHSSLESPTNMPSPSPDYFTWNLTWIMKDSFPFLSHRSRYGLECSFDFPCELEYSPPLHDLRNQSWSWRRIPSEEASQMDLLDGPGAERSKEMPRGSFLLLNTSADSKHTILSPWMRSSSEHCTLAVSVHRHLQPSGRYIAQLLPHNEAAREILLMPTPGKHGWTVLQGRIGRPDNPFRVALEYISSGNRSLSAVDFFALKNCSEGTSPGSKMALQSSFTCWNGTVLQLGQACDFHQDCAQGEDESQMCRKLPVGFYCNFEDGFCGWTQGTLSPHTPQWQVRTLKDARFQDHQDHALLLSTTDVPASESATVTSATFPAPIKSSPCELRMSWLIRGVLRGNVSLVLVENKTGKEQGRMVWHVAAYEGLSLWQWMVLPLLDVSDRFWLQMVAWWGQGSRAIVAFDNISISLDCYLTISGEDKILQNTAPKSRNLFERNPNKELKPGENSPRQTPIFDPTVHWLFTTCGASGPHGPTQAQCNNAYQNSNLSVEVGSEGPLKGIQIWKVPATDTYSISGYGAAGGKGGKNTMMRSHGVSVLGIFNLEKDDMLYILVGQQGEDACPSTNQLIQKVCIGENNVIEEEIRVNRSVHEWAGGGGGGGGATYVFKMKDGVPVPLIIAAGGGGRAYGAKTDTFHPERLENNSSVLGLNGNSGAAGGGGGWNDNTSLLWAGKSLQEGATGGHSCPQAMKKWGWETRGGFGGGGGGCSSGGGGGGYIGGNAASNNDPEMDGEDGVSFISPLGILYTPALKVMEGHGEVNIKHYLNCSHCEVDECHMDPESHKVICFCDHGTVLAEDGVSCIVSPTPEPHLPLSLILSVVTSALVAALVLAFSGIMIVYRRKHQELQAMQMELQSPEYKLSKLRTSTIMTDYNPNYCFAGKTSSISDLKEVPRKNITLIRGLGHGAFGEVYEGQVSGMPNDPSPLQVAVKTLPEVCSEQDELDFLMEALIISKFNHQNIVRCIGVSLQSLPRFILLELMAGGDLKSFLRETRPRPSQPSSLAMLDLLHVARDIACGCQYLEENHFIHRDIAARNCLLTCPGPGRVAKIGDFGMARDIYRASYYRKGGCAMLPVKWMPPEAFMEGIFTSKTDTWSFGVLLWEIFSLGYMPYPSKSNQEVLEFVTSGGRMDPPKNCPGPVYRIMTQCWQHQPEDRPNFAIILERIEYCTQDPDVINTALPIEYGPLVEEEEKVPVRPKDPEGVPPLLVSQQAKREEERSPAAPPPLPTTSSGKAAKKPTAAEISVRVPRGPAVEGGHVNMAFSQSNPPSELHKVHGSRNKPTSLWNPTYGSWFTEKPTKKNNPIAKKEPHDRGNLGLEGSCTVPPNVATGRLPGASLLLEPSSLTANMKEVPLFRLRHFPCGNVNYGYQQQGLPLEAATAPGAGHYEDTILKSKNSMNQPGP
c-MET, sequence (P08581 25-1390): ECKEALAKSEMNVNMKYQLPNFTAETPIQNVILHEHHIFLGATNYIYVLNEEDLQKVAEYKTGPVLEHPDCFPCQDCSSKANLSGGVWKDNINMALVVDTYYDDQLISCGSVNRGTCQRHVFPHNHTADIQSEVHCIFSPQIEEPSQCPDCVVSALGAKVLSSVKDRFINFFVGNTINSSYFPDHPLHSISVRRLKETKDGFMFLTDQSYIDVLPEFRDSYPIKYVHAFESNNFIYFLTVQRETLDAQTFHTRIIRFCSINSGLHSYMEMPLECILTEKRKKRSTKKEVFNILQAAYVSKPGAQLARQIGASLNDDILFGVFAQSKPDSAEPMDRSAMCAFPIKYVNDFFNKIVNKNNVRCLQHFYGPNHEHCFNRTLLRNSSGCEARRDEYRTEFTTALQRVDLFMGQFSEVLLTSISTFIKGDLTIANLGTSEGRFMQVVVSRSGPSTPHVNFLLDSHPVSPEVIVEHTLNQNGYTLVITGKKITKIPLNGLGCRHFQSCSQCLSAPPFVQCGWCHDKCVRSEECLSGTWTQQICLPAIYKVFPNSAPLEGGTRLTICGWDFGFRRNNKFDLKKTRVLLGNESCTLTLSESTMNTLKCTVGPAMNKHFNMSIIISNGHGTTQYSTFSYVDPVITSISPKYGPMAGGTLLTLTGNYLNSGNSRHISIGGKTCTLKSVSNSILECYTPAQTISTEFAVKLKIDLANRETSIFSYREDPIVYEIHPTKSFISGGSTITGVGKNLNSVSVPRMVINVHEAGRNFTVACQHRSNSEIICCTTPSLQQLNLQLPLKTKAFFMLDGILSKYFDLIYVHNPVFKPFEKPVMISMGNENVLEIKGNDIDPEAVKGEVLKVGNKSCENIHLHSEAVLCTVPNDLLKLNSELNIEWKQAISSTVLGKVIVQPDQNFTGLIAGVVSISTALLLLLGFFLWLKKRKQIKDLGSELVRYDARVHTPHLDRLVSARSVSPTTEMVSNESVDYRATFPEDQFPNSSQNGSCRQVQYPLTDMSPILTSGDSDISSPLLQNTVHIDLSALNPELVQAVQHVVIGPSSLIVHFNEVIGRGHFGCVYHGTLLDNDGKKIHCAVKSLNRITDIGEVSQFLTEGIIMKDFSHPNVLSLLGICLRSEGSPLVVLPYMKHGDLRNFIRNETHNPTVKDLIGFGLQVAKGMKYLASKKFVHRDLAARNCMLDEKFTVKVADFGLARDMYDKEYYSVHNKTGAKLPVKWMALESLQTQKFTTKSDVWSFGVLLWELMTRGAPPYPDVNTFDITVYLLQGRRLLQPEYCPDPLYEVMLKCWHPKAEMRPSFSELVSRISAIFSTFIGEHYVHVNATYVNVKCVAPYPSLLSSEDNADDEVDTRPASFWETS

Row | IC50 (c-MET) | Prodrug factor c-MET = IC50 (prodrug)/IC50 (crizotinib) (c-MET) | IC50 (ALK) | Prodrug factor ALK = IC50 (prodrug)/IC50 (crizotinib) (ALK) | Prodrug still intact [5] | Time to activation on incubation with H2O2 ([1]; incubation with H2O2) | Release of free crizotinib ([1]; after 10 min) | Release of free crizotinib ([1]; after 1 h) | Structure (SMILES) | Product of activation with H2O2 [1] | Product of activation with H2O2 ([1]; listed as prodrug B) | IC50 [2] | Ratio of IC50 ±H2O2, H2228 [2] | IC50 [3] | IC50 [4] | Ratio of IC50 ±H2O2, RUMH [4] | IC50 [6] | Ratio of IC50 ±H2O2, H1993 [6] | GI absorption (predicted) [7]
1 | 0.684 µM | 137 | 0.333 µM | 16 | 30–40% | – | – | – | C[C@@H](Oc1cc(-c2cnn(C3CCNCC3)c2)cnc1NCc1ccc(B(O)O)cc1)c1c(Cl)ccc(F)c1Cl [Prodrug B, (R)-(4-(((3-(1-(2,6-Dichloro-3-fluorophenyl)ethoxy)-5-(1-(piperidin-4-yl)-1H-pyrazol-4-yl)pyridin-2-yl)amino)methyl)phenyl)boronic acid] | formation of a hydrolyzed but stable phenol derivative, compound C | formation of compound C rather than the release of crizotinib | 8.3 ± 0.42 µM | 0.92 | 8.99 ± 0.36 µM | 5.05 ± 0.44 µM | 0.91 | 10.2 ± 1.68 µM | 0.87 | –
2 | 0.055 µM | 11 | 0.472 µM | 22 | – | ≤ 1 h | ~ 50% | ~ 75% | C[C@@H](Oc1cc(-c2cnn(C3CCNCC3)c2)cnc1NC(=O)OCc1ccc(B(O)O)cc1)c1c(Cl)ccc(F)c1Cl [Prodrug A, (R)-(4-((((3-(1-(2,6-Dichloro-3-fluorophenyl)ethoxy)-5-(1-(piperidin-4-yl)-1H-pyrazol-4-yl)pyridin-2-yl)carbamoyl)oxy)methyl)phenyl)boronic acid] | – | – | 23.1 ± 0.47 µM | 1.62 | 16.8 ± 1.38 µM | 14 ± 3.92 µM | 1.57 | 9.73 ± 2.63 µM | 1.22 | –
3 | – | – | – | – | – | – | – | – | C[C@@H](Oc1cc(-c2cnn(C3CCNCC3)c2)cnc1N)c1c(Cl)ccc(F)c1Cl [Crizotinib, reference compound] | – | – | – | – | 6.32 ± 0.39 µM | 6.08 ± 1.51 µM | – | 3.18 ± 0.26 µM | – | –
4 | – | – | – | – | – | – | – | – | C[C@@H](Oc1cc(-c2cnn(C3CCNCC3)c2)cnc1NCc1ccc(O)cc1)c1c(Cl)ccc(F)c1Cl [Compound C, (R)-4-(((3-(1-(2,6-Dichloro-3-fluorophenyl)ethoxy)-5-(1-(piperidin-4-yl)-1H-pyrazol-4-yl)pyridin-2-yl)amino)methyl)phenol] | – | – | 7.23 ± 0.28 µM | – | 4.03 ± 0.04 µM | 5.94 ± 1.09 µM | – | 9.96 ± 2.69 µM | – | –
5 | – | – | – | – | – | – | – | – | CS(=O)(=O)CCNCc1ccc(-c2ccc3ncnc(Nc4ccc(OCc5cccc(F)c5)c(Cl)c4)c3c2)o1 [lapatinib] | – | – | – | – | – | – | – | – | – | low
